Broadly, the AUC(0-inf) is the area under the concentration-time curve extrapolated to infinity. A high value points to more exposure. The term AUC(0-t) denotes exposure summed from dosing to a finite time, without extrapolation to infinity. As a reminder, the Cmax is the maximum level reached in the sampled fluid or tissue. The Tmax is the time at which the peak concentration occurs. The term IC50 denotes the point on the concentration scale where inhibition reaches its midpoint. In general, half-life refers to how long it takes for the measured level to halve. By microsomal CLint is commonly meant the rate of metabolic loss divided by the concentration.

The values below come from US10519193B2, “Steroidal compound, composition containing the same and use thereof” (Shenzhen TargetRx, Inc., priority 2016, dated 2019).

Each structure is given as a SMILES string. Some results are limits rather than exact numbers.

Series [1] in a line: Pharmacokinetic evaluation in rats. Type of series: in vivo. The settings on record: male, Sprague-Dawley, plasma, 5 mg/kg; rat, PO. As for the experimental part:
8 male Sprague-Dawley rats (7-8 weeks old, and weighing approximately 210 g) were divided into two groups with 4 rats in each group, a single oral dose of 5 mg/kg given to the two groups were (a) control group: (3β)-17-(3)-pyridyl)androst-5,16-dienol and (b) test group: Examples 1-13, and pharmacokinetic differences between the two groups were compared.
The rats were raised on standard food and water. Fasting was started 16 hours before the test. The drug was dissolved with PEG400 and dimethyl sulfoxide. The blood samples were collected from eyelids at the time points of 0.083 hours, 0.25 hours, 0.5 hours, […], 2 hours, 4 hours, 6 hours, 8 hours, 12 hours, and 24 hours after administration.
Rats were briefly anesthetized after inhalation of diethyl ether and 300 μL of blood sample was collected from the eyelids into test tubes. There was 30 μL of 1% heparin salt solution in the test tube. Tubes were dried at 60° C. overnight before use. After the blood sample was collected at a later time point, the rats were sacrificed after ether anesthesia.
Immediately after the collection of the blood sample, the test tube was gently inverted at least 5 times to ensure sufficient mixing and then placed on ice. The blood sample was centrifuged at 5000 rpm at 4° C. for 5 minutes to separate the plasma from the red blood cells. 100 μL of plasma was aspirated into a clean plastic centrifuge tube with a pipette, marking with the name of the compound and time point. Plasma was stored at −80° C. prior to analysis. The concentration of the compound of the present disclosure in plasma was determined by LC-MS/MS. The pharmacokinetic parameters were calculated based on the blood concentration of each animal at different time points.

A short description of series [2]: Pharmacokinetic evaluation in rats. The note with it: male, Sprague-Dawley, plasma; rat, IV. Type of series: in vivo.
The subject of series [3] is castration-resistant prostate cancer. The settings on record: patients, cited from earlier work.
Series [4] concerns the target T1, Human CYP17 (Homo sapiens, UniProt P05093).
T1 sequence (P05093 1-508): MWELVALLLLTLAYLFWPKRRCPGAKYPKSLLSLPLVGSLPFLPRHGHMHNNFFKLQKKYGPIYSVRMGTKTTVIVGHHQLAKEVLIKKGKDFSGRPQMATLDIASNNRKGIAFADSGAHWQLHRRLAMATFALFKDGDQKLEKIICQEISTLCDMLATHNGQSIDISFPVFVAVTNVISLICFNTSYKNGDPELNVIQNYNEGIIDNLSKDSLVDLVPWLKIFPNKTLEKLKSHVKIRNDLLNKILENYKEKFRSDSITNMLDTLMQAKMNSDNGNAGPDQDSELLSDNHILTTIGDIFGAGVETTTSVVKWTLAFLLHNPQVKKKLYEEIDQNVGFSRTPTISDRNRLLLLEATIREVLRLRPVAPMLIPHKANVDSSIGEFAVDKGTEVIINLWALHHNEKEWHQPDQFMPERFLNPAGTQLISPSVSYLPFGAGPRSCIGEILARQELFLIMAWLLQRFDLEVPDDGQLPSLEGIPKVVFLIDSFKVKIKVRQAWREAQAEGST
Nature of the series: CYP17 lyase assay. It counts as biochemical. On the set-up: made in house; host or cells: HEK293 cells (microsomes). The procedure: Human CYP17 was expressed in HEK293 cells and microsome were prepared, which was subsequently used as a source of enzyme for lyase assays. The reaction includes 200 nM [3H]-hydroxy pregnenolone (ARC), 200 nM 17-hydroxy pregnenolone (Sigma), 2 mM NADPH (Calbiochem), and CYP 17-HEK293 microsomes, which were incubated for 20 minutes at room temperature in the presence of DMSO or a test compound. Compounds were dissolved in DMSO and serially diluted. The reaction was stopped by the addition of 0.2N HCl and the product was captured using an anti-mouse YSi SPA Bead (GE) conjugated anti-DHEA monoclonal antibody (Abcam). The signal intensity determined by Packard Top Count was used to calculate the percent inhibition and IC50 values.

A short description of series [5]: Metabolic stability evaluation in human liver microsomes. Type of series: in vitro ADME. The settings on record: for half-life at 1 μM / microsomal CLint at 1 μM: human liver microsomes, pH 7.4, 1 μM compound, 0.5 mg/mL protein; for half-life at 1 μM / microsomal CLint at 1 μM / clearance compared to the non-deuterated compound / half-life compared to the non-deuterated compound: human liver microsome; for clearance compared to the non-deuterated compound / half-life compared to the non-deuterated compound / half-life of the deuterated prodrug: in words; for half-life of the deuterated prodrug: metabolized abiraterone of the prodrug, liver microsomes, versus abiraterone acetate. As for the experimental part: Experiments in microsomes: Human liver microsomes: 0.5 mg/mL, Xenotech; Coenzyme (NADPH/NADH): 1 mM, Sigma Life Science; Magnesium chloride: 5 mM, 100 mM phosphate buffer (pH 7.4).
Preparation of stock solution: Powder of the example compound was accurately weighed and dissolved in DMSO to 5 mM.
Preparation of phosphate buffer (100 mM, pH7.4): A pre-formulated 0.5M potassium dihydrogen phosphate (150 mL) was mixed with 0.5M dibasic potassium phosphate (700 mL). The pH of the mixture was adjusted to 7.4 with 0.5M dibasic potassium phosphate solution. The mixture was diluted 5-fold with ultrapure water before use, and magnesium chloride was added to obtain a phosphate buffer (100 mM) containing 100 mM potassium phosphate, 3.3 mM magnesium chloride, pH 7.4.
A NADPH regeneration system solution (containing 6.5 mM NADP, 16.5 mM G-6-P, 3 U/mL G-6-P D, 3.3 mM magnesium chloride) was prepared and placed on wet ice prior to use.
Preparation of stop solution: acetonitrile solution containing 50 ng/mL propranolol hydrochloride and 200 ng/mL tolbutamide (internal standard). 25057.5 μL of phosphate buffer (pH 7.4) was taken into a 50 mL centrifuge tube, to which 812.5 μL human liver microsomes were added, and mixed to obtain a liver microsome dilution solution with a protein concentration of 0.625 mg/mL. 25057.5 μL of phosphate buffer (pH 7.4) was taken into a 50 mL centrifuge tube, to which 812.5 μL SD rat liver microsomes were added, and mixed to obtain a liver microsome dilution solution with a protein concentration of 0.625 mg/mL.
Incubation of the samples: The stock solution of the respective compound was respectively diluted to 0.25 mM with an aqueous solution containing 70% acetonitrile, and used as a working solution, ready for use. 398 μL of the dilution solution of human liver microsomes or rat liver microsome were added to a 96-well incubation plate (N=2), respectively, and 2 μL of 0.25 mM working solution was added and mixed.
Metabolic stability assay: 300 μL of pre-chilled stop solution was added to each well of a 96-well deep well plate and placed on ice as a stop plate. The 96 well incubation plate and NADPH regeneration system were placed in a 37° C. water bath box, shaken at 100 rpm and pre-incubated for 5 min. 80 μL of incubation solution was taken out from each well of the incubation plate and added to the stop plate, mixed, and replenished with 20 μL of NADPH regeneration system solution as a 0-min sample. 80 μL of NADPH regeneration system solution was added to each well of the incubation plate to start the reaction and start counting. […] Separately, 100 μL of the reaction solution was taken at 10, 30, and 90 min reaction, respectively, added to a stop plate, and vortexed for 3 minutes to terminate the reaction. The stop plate was centrifuged at 5000×g at 4° C. for 4 min. 100 μL of the supernatant was added to a 96-well plate to which 100 μL of distilled water was previously added, mixed, and analyzed by LC-MS/MS.
Data analysis: The peak areas of the corresponding compound and internal standard were detected by LC-MS/MS system, and the ratio of the peak area of the compound to the internal standard was calculated.
In general terms: Microsomes from liver hold many membrane-bound enzymes, among them those of drug oxidation.

Series [6] addresses T1, Human CYP17. Nature of the series: CYP17 hydroxylase assay. Type of series: biochemical. Also on record: made in house; host or cells: E. coli (membrane preparation). As for the experimental part:
E. coli was transformed to express active human CYP17, and a membrane prepared from the transformed E. coli was used as a source of the enzyme. […] The reaction mixture was incubated at 37° C. for 120 minutes and 200 μL of 0.02 N HCl in acetonitrile was added to stop the reaction. The sample was then spun at […] and 200 μL of the supernatant was transferred to a clean tube for determination. The reaction product 17-alpha pregnenolone was measured by LC/MS.

The mark [7] stands for this setting: abiraterone acetate plus prednisone.
Setting [8] is: CYP17-HEK293 microsomes, 20 minutes at room temperature, read-out: CYP17 lyase IC50.
[9] abbreviates: hCYP17 E. coli membrane, 25 μM pregnenolone, 37° C. 120 minutes, read-out: CYP17 hydroxylase IC50.

Take `CC(=O)O[C@H]1CC[C@@]2(C)C(=CC[C@@H]3[C@@H]2CC[C@]2(C)C(c4cccnc4)=CC[C@@H]32)C1` [Abiraterone acetate, reference compound]: in series [1], the AUC(0-inf) turned out to be 1.32 µg·h/mL, the AUC(0-t) was found to be 1.29 µg·h/mL, the Cmax was found to be 0.506 µg/mL and the time to peak (Tmax) was 1.33 h. Further, in series [2], the AUC(0-inf) was determined as 0.192 µg·h/mL, the AUC(0-t) was determined as 0.11 µg·h/mL, the Cmax was 0.0106 µg/mL and the Tmax was found to be 2 h. The “risk of death reduced” value in series [3] (abiraterone acetate plus prednisone vs placebo plus prednisone) is 35%. Further, in series [3] (setting [7]), the Median survival is listed as 14.8 months and the “Median survival longer than placebo plus prednisone” value is listed as 3.9 months.
For `C[C@]12CC[C@H](O)CC1=CC[C@@H]1[C@@H]2CC[C@]2(C)C(c3cccnc3)=CC[C@@H]12` [Abiraterone, (3β)-17-(3-pyridinyl)androst-5,16-dienol, reference compound], the IC50 on Human CYP17 [4] (setting [8]) was less than 0.01 µM. For the same compound, in series [5], the half-life at 1 μM is 0.667 h and the microsomal CLint at 1 μM was determined as 34.7 µL/min/mg.
With `[2H]c1ccc(C2=CCC3C4CC=C5C[C@@H](O)CC[C@]5(C)C4CC[C@]23C)cn1` (stereo partly drawn) [Example 1, (3β)-17-(3-pyridyl-6-d)androst-5,16-dienol], on Human CYP17 [6] (setting [9]), the IC50 is less than 0.02 µM. The IC50 at Human CYP17 [4] (setting [8]) was less than 0.01 µM. For the same compound, in series [5], the “clearance compared to the non-deuterated compound” value is “reduced”, the “half-life compared to the non-deuterated compound” value was “prolonged”, the half-life at 1 μM was greater than 2.42 h and the microsomal CLint at 1 μM was less than 9.6 µL/min/mg.
Consider `[2H]c1cncc(C2=CCC3C4CC=C5C[C@@H](O)CC[C@]5(C)C4CC[C@]23C)c1` (stereo partly drawn) [Example 2, (3β)-17-(3-pyridyl-5-d)androst-5,16-dienol], for which the IC50 on Human CYP17 [6] (setting [9]) is less than 0.02 µM. Further, the IC50 on Human CYP17 [4] (setting [8]) is less than 0.01 µM. In series [5], the “clearance compared to the non-deuterated compound” value is on record as “reduced”, the “half-life compared to the non-deuterated compound” value is listed as “prolonged”, the half-life at 1 μM is 1.19 h and the microsomal CLint at 1 μM is 19.5 µL/min/mg.
As to `[2H]c1cncc(C2=CCC3C4CC=C5C[C@@H](OC(C)=O)CC[C@]5(C)C4CC[C@]23C)c1` (stereo partly drawn) [Example 3, (3β)-17-(3-pyridyl-5-d)androst-5,16-dienyl Acetate], the “half-life of the deuterated prodrug” value in series [5] is “significantly prolonged”.
Same read-out and setting: in the case of `[2H]C([2H])([2H])C(=O)O[C@H]1CC[C@@]2(C)C(=CCC3C2CC[C@]2(C)C(c4cccnc4)=CCC32)C1` (stereo partly drawn) [Example 4, (3β)-17-(3-pyridyl)androst-5,16-dienyl d3-acetate] it was “significantly prolonged”.
For the compound `[2H]c1ccc(C2=CCC3C4CC=C5C[C@@H](OC(C)=O)CC[C@]5(C)C4CC[C@]23C)cn1` (stereo partly drawn) [Example 5, (3β)-17-(3-pyridyl-6-d)androst-5,16-dienyl Acetate], in series [1], the AUC(0-inf) stood at 2.44 µg·h/mL, the AUC(0-t) was determined as 2.42 µg·h/mL, the highest level (Cmax) was 0.813 µg/mL and the Tmax worked out at 1.67 h. In series [2], the AUC(0-inf) came to 0.274 µg·h/mL, the AUC(0-t) is 0.224 µg·h/mL, the Cmax was 0.0241 µg/mL and the Tmax turned out to be 3 h.
With `[2H]c1cncc(C2=CCC3C4CC=C5C[C@@H](OC(=O)C([2H])([2H])[2H])CC[C@]5(C)C4CC[C@]23C)c1` (stereo partly drawn) [Example 7, (3β)-17-(3-pyridyl-5-d)androst-5,16-dienyl d3-acetate], the “half-life of the deuterated prodrug” value in series [5] is “significantly prolonged”.
On to `[2H]C1=C(c2cccnc2)[C@@]2(C)CCC3C(CC=C4C[C@@H](O)CC[C@@]43C)C2C1` (stereo partly drawn) [Example 8, (3β)-17-(3-pyridyl)androst-5,16-dienol-16-d], for which, at Human CYP17 [6], the IC50 is less than 0.02 µM. At Human CYP17 [4], this compound showed an IC50 of less than 0.01 µM. Moreover, in series [5], the “clearance compared to the non-deuterated compound” value is “reduced”, the “half-life compared to the non-deuterated compound” value is reported as “prolonged”, the half-life at 1 μM is 0.855 h and the intrinsic clearance (microsomal CLint) at 1 μM was determined as 24.3 µL/min/mg.
As for `[2H]C1=C(c2cccnc2)[C@@]2(C)CCC3C(CC=C4C[C@@H](OC(=O)C([2H])([2H])[2H])CC[C@@]43C)C2C1` (stereo partly drawn) [Example 9, (3β)-17-(3-pyridyl)androst-5,16-dienyl-16-d d3-acetate], in series [5], the “half-life of the deuterated prodrug” value is given as “significantly prolonged”. Further, in series [1], the AUC(0-inf) came out at 2.55 µg·h/mL, the AUC(0-t) came out at 2.48 µg·h/mL, the Cmax was 0.549 µg/mL and the Tmax came out at 1.67 h. Also, in series [2], the Cmax amounted to 0.0436 µg/mL and the Tmax is 17.3 h.
